In article PMC11864979, “First-in-class ultralong-target-residence-time p38α inhibitors as a mitosis-targeted therapy for colorectal cancer” (Nature Cancer, 2025) one finds remaining activity data, which are given here for one compound.

Read-outs that look alike come from different tables or passages of the source.

Holding throughout (assay): selectivity profiling in a panel of 340 wild-type kinases (Reaction Biology Europe)
What all share (format): binding

Test [1] addresses T1, 340 wild-type kinases (Homo sapiens, UniProt P35626).
T1 construct: purchased Reaction Biology Europe
T1 sequence (P35626 1-688): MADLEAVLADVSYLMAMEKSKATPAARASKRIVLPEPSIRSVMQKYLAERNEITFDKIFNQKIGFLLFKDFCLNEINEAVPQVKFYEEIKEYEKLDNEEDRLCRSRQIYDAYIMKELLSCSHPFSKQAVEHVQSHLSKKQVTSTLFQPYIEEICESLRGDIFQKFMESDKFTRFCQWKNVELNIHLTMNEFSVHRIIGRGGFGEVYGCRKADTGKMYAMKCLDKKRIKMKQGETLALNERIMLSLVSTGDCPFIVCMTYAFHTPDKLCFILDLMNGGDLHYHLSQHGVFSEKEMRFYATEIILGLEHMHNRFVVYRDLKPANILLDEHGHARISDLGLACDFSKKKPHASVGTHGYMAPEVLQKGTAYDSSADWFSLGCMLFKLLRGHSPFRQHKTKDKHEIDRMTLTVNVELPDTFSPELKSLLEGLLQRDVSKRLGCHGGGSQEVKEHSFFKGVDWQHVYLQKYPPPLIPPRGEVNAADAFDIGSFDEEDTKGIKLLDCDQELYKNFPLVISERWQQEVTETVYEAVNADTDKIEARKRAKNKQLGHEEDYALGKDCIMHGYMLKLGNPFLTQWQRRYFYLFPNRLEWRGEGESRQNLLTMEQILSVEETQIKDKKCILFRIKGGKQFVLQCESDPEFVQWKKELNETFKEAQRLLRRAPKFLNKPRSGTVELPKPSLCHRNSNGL

Test [2] addresses T2, 340 wild-type kinases (Homo sapiens, UniProt P36888).
T2 construct: purchased Reaction Biology Europe
T2 sequence (P36888 27-993): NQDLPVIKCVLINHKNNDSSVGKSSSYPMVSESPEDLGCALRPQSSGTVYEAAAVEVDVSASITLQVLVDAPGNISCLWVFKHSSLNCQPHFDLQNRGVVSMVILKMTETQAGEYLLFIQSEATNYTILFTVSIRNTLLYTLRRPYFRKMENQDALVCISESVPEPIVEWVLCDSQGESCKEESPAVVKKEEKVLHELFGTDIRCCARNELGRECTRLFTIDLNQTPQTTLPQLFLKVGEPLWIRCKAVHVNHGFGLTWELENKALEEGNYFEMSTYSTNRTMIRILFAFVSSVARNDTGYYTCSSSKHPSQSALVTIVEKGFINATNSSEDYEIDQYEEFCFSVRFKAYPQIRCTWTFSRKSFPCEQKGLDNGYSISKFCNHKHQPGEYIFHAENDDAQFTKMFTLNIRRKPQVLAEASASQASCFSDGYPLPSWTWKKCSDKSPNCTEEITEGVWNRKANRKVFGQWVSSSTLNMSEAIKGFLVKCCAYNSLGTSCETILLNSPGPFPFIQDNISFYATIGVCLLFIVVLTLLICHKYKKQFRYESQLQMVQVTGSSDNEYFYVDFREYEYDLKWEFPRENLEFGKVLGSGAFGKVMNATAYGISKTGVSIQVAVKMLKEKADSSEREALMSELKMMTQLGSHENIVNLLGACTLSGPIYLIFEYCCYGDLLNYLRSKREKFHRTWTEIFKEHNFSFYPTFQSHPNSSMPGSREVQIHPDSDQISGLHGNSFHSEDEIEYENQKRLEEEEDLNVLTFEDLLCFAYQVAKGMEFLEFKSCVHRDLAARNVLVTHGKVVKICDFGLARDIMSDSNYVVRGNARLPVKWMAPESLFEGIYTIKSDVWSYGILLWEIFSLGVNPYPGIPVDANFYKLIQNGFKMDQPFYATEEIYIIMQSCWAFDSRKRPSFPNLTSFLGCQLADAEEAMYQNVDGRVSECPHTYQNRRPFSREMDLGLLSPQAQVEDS

For test [3], the target named is T3, 340 wild-type kinases (Homo sapiens, UniProt Q16539).
T3 construct: purchased Reaction Biology Europe

Test [4] deals with T4, 340 wild-type kinases (Homo sapiens, UniProt Q86V86).
T4 construct: purchased Reaction Biology Europe

T3 sequence (Q16539 whole entry): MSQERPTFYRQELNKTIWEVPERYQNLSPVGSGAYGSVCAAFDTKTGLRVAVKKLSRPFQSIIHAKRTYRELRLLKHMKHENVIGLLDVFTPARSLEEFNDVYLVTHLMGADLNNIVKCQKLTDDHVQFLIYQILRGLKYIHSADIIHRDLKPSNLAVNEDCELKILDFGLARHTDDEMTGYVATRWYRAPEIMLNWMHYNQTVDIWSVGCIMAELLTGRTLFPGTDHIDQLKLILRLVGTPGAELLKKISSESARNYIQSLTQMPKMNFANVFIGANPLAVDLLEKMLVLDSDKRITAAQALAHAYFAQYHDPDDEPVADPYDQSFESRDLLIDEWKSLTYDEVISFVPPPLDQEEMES

With `CNC(=O)c1ccc2c(c1)C(=O)c1ccc(Nc3ccc(F)c(NC(=O)C4CC4)c3)cc1CC2` [Compound 2015], the remaining activity at 0.2 µM on 340 wild-type kinases [1] (0.2 µM 2015, read-out: GRK3 residual activity) came out at 117%; at 340 wild-type kinases [1] (GRK3, 0.2 µM, read-out: residual activity) it was 117%; at 340 wild-type kinases [2] (0.2 µM 2015, read-out: FLT3 residual activity) it was 84.5%; at 340 wild-type kinases [2] (FLT3, 0.2 µM, read-out: residual activity) it was 84.5%; on 340 wild-type kinases [3] (0.2 µM 2015, read-out: p38alpha residual activity) it was 5.35%; at 340 wild-type kinases [3] (p38alpha, 0.2 µM, read-out: residual activity), 5.35%. Further, the remaining activity at 0.2 µM on 340 wild-type kinases [4] (0.2 µM 2015, read-out: PIM3 residual activity) was 95.8%; at 340 wild-type kinases [4] (PIM3, 0.2 µM, read-out: residual activity) it was 95.8%. For the same compound, the remaining activity at 1 µM at 340 wild-type kinases [1] (1 µM 2015, read-out: GRK3 residual activity) is 99.7%; on 340 wild-type kinases [1] (GRK3, 1 µM, read-out: residual activity) it was 99.7%; on 340 wild-type kinases [2] (1 µM 2015, read-out: FLT3 residual activity), 80%; at 340 wild-type kinases [2] (FLT3, 1 µM, read-out: residual activity) it was 80%; at 340 wild-type kinases [3] (1 µM 2015, read-out: p38alpha residual activity), 1.8%; at 340 wild-type kinases [3] (p38alpha, 1 µM, read-out: residual activity) it was 1.8%. Also, the remaining activity at 1 µM on 340 wild-type kinases [4] (1 µM 2015, read-out: PIM3 residual activity) was 92.3%; on 340 wild-type kinases [4] (PIM3, 1 µM, read-out: residual activity), 92.2%.
